The values below come from patent US7745443B2 (Sanofi-Aventis Deutschland GmbH, priority 2002, dated 2010).

Molecules are shown by their SMILES.

For this assay, the target named is binding of human von Willebrand factor to europium (Eu)-chelate-labeled chimeric GPIb-Fc protein (Homo sapiens, UniProt P04275+P07359). Nature of the assay: Von Willebrand Factor-GPIb Binding Assay (Eu based, botrocetin-induced). As to conditions: botrocetin-induced binding of Eu-chelate-labeled chimeric GPIb-Fc to immobilized human vWF; IC50 values as specified in the examples. As for the experimental part: Activity of compounds of the formula I was shown by an Eu based binding assay in which the binding of human von Willebrand factor to an europium (Eu)-chelate-labeled chimeric GPIb-Fc protein was induced by botrocetin. The preparation of the Eu-chelate-labeled chimeric GPIb-Fc protein is described in detail in a patent application (Fukuchi et al., EP1074564).
Chain of binding of human von Willebrand factor to europium (Eu)-chelate-labeled chimeric GPIb-Fc protein (P04275 764-2813 limits assumed, change not shown): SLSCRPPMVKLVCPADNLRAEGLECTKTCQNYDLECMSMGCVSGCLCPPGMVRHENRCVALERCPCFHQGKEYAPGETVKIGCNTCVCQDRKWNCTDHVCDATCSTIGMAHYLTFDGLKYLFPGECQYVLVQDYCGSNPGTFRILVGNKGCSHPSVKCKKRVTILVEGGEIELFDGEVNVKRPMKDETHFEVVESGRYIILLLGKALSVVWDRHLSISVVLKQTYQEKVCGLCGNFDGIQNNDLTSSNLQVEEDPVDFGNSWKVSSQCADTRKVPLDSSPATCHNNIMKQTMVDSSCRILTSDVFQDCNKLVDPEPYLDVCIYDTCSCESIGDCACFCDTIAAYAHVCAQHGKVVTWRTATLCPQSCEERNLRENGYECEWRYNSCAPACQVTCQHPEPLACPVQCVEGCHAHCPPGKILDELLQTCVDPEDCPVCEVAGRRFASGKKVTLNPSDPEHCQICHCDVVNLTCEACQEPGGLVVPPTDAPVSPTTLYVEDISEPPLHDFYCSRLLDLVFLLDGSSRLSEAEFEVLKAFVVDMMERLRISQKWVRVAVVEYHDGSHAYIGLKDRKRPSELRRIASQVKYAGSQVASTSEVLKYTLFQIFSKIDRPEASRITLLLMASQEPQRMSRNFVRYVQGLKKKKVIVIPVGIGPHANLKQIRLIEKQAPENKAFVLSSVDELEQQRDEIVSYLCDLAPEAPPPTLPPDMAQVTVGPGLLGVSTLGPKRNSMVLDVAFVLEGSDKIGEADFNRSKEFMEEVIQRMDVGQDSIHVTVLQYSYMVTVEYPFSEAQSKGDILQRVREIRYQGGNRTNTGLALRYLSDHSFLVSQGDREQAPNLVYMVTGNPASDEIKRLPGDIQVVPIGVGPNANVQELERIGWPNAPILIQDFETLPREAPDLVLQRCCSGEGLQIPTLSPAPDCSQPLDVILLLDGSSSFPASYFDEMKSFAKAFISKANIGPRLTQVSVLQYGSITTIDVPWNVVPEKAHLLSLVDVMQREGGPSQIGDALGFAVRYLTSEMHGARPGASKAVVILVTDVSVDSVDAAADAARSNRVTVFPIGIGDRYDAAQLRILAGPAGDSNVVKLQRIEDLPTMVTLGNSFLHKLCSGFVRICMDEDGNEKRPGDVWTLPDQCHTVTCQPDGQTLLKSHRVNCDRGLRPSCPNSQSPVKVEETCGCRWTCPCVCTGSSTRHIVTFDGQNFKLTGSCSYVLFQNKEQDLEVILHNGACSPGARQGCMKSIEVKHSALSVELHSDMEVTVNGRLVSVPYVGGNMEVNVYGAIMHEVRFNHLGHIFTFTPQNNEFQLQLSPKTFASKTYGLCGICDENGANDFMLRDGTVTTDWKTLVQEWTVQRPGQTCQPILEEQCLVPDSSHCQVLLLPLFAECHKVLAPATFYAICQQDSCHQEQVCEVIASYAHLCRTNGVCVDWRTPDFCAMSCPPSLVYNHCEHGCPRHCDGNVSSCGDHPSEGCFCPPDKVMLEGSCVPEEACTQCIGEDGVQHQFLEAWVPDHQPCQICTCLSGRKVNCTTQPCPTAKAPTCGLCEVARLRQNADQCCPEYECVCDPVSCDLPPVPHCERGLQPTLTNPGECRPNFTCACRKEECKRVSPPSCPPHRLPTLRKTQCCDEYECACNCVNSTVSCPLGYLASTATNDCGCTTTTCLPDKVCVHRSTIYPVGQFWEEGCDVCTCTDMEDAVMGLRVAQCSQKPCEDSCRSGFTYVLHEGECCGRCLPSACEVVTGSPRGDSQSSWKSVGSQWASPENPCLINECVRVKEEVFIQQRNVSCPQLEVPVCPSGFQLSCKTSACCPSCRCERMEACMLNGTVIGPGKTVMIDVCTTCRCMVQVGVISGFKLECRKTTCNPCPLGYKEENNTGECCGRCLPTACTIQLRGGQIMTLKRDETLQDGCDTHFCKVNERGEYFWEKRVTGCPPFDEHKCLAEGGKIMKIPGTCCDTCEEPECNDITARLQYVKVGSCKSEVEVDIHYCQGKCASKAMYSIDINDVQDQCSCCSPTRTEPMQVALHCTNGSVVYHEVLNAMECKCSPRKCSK
Chain of binding of human von Willebrand factor to europium (Eu)-chelate-labeled chimeric GPIb-Fc protein (P07359 17-335 limits assumed, change not shown): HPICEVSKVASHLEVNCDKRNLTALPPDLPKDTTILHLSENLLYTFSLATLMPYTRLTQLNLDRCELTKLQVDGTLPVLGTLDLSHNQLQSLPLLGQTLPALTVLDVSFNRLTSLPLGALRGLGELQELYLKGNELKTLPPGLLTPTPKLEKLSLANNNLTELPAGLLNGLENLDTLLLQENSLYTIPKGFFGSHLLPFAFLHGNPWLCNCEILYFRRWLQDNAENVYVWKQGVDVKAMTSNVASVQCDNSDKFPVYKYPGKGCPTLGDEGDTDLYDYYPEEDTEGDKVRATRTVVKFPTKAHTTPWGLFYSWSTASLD
A TBS (Tris buffered saline, 20 mM Tris-HCl (pH 7.4) and 0.15 M NaCl) (50 microl) containing human von Willebrand factor (2.5 microg/ml) was added to each well of 1 96-well plate, and the von Willebrand factor was immobilized as a solid phase overnight at 4 dec. Each well was washed once with TBS (150 microl) and blocked with TBS containing 5% BSA (bovine serum albumin) for about 3 hours. Each well of the plate was washed twice with TBS (150 microl), and then added with 25 microl of an assay buffer (Assay Buffer, 1244-106, produced by Wallac) with the compounds, further added with the assay buffer (25 microl) containing the europium (Eu)-chelate-labeled chimeric GPIb-Fc protein (100 ng/ml), labeled with Eu-N1-ITC (Eu-chelate of N^1-(p-isothiocyanatebenzyl)-diethlenetriamine-N^1,N^2,N^3,N^3-tetraacetic acid, 1244-302, produced by Wallac) and botrocetin (500 ng/ml), and left stand at room temperature for 2 hours. The preparation of the Eu-chelate-labeled chimeric GPIb-Fc protein is described in detail in a patent application (Fukuchi et al., EP1074564). Each well of the plate was washed 5 times with TBS (150 microl) containing 0.05% Tween-20, then added with 100 microl of a fluorescence enhancement buffer (Enhancement Solution, 1244-104, produced by Wallac), and shaken for 1 minute. Then, the amount of europium (Eu) was measured by using a 1420 ARVO multi-label counter (produced by Wallac, measurements time: 1 second).
On to `Cc1cc(N)c2cc(C(=O)Nc3ccc(NC(=O)c4ccc(Cl)c(S(N)(=O)=O)c4)cc3)ccc2n1` [Example 26, 4-Amino-N-(4-{[3-(aminosulfonyl)-4-chlorobenzoyl]amino}phenyl)-2-methyl-6-quinolinecarboxamide], for which the IC50 is 32.8 µM.
For `Cc1cc(N)c2cc(C(=O)Nc3ccc(NC(=O)c4cccc(N(C)C)c4)cc3)ccc2n1` [Example 27, 4-Amino-N-{4-[(3-dimethylaminobenzoyl)amino]phenyl}-2-methyl-6-quinolinecarboxamide] the value was 46.5 µM; for `Cc1cc(N)c2cc(C(=O)Nc3ccc(NC(=O)c4ccc(OC5CCNCC5)cc4)cc3)ccc2n1` [Example 29, 4-Amino-N-(4-{[4-(4-piperidinyloxy)benzoyl]amino}phenyl)-2-methyl-6-quinolinecarboxamide], 19.8 µM; for `Cc1cc(N)c2cc(C(=O)Nc3ccc(NC(=O)c4ccc5[nH]c(N)nc5c4)cc3)ccc2n1` [Example 30, 4-Amino-N-(4-{[(2-amino-1H-benzimidazol-5-yl)carbonyl]amino}phenyl)-2-methyl-6-quinolinecarboxamide], 4.03 µM.
For `Cc1cc(N)c2cc(C(=O)Nc3ccc(NC(=O)c4ccc5nc(N)sc5c4)cc3)ccc2n1` [Example 31] the value was 2.9 µM; for `Cc1cc(N)c2cc(C(=O)Nc3ccc(NC(=O)c4ccc5[nH]cnc5c4)cc3)ccc2n1` [Example 32, 4-amino-N-{4-[(1H-benzimidazol-5-ylcarbonyl)amino]phenyl}-2-methyl-6-quinolinecarboxamide], 7.5 µM; for `Cc1cc(N)c2cc(C(=O)Nc3ccc(NC(=O)c4ccc5nc(N)ccc5c4)cc3)ccc2n1` [Example 33, 4-Amino-N-(4-{[(2-amino-6-quinolinyl)carbonyl]amino}phenyl)-2-methyl-6-quinolinecarboxamide], 1.7 µM.
`COc1cc(NC(=O)c2ccc3nc(N)ccc3c2)ccc1NC(=O)c1ccc2nc(C)cc(N)c2c1` [Example 34, 4-Amino-N-(4-{[(2-amino-6-quinolinyl)carbonyl]amino}-2-methoxyphenyl)-2-methyl-6-quinolinecarboxamide] came in with an IC50 of 3.61 µM. Compared with the last compound, the IC50 is about 2.1-fold higher.
For `COc1cc(NC(=O)c2ccc3[nH]c(C)nc3c2)ccc1NC(=O)c1ccc2nc(C)cc(N)c2c1` [Example 35, 4-Amino-N-(2-methoxy-4-{[(2-methyl-1H-benzimidazol-5-yl)carbonyl]amino}phenyl)-2-methyl-6-quinolinecarboxamide] the value was 9.18 µM; for `Cc1cc(N)c2cc(C(=O)Nc3ccc(NC(=O)c4ccc5nc(C)cc(N)c5c4)cc3)ccc2n1` [Example 36], 1.57 µM; for `Cc1cc(N)c2cc(C(=O)Nc3ccc(CNc4ccc5cn[nH]c5c4)cc3)ccc2n1` [Example 37, 4-Amino-N-{4-[(1H-indazol-6-ylamino)methyl]phenyl}-2-methyl-6-quinolinecarboxamide], 2.56 µM.
`Cc1cc(N)c2cc(C(=O)NC3CCC(NC(=O)c4ccc5nc(N)sc5c4)CC3)ccc2n1` (stereo not shown) [Example 38, 4-Amino-N-(4-{[(2-amino-1,3-benzothiazol-6-yl)carbonyl]amino}cyclohexyl)-2-methyl-6-quinolinecarboxamide] gave an IC50 of 33.3 µM.
In the case of `Cc1cc(N)c2cc(C(=O)NC3CCC(NC(=O)c4ccc5nc(N)ccc5c4)CC3)ccc2n1` (stereo not shown) [Example 39, 4-Amino-N-(4-{[(2-amino-6-quinolinyl)carbonyl]amino}cyclohexyl)-2-methyl-6-quinolinecarboxamide] it was 28.5 µM.

As a reminder, the IC50 is the concentration needed to halve the response being measured. Read a low IC50 as greater potency.
